From US10174011B2, “Heterocyclic compounds, process for preparation of the same and use thereof” (SHANGHAI INSTITUTE OF MATERIA MEDICA, CHINESE ACADEMY OF …, priority 2014, dated 2019)
Like-named read-outs stand apart in the source and are kept apart here.

Legend:
[1] = tested on: PCP-induced hyperactivity in mice; experiment: In vivo efficacy test (PCP-induced high locomotor activity in mice); details: male ICR mice, oral administration 45 minutes before PCP 7 mg/kg i.p.; dose significantly reducing PCP-induced hyperactivity vs model group
Protocol: 5) In Vivo Efficacy Test (PCP-Induced High Locomotor Activity in Mice)
PCP solution was prepared in a suitable concentration for 7 mg/kg dosage with saline. […] Male ICR mice (18-22 g) were used as test animals. All the test mice were randomly divided into vehicle control group, model control group, positive control group, and treatment group(8 mice per group). Mice of each group were orally administered test compounds or vehicle. After 45 minutes PCP solution was administered (7 mg/kg) through intraperitoneal injection. The mice track after drug or saline administration was recorded and analyzed by the spontaneous, open-field video analysis system. […] The mice track was recorded and analyzed by the spontaneous, open-field video analysis system. The total distance in each group was calculate and expressed as mean+SD and statistical evaluation was performed by one way ANOVA.

[2] = target: human recombinant D2 receptor (Homo sapiens (Human), UniProt P14416); experiment: D2 receptor antagonism activity test (inhibition of dopamine-induced decrease of cAMP production, LANCE cAMP 384 Kit); details: read-out: D2 receptor antagonism (IC50, mol/L), HEK293 cells expressing human recombinant D2 receptor, 0.1 nM-10000 nM
[3] = target: human recombinant 5-HT1A receptor (Homo sapiens (Human), UniProt P08908); experiment: 5-HT1A receptor agonism activity test (inhibition of cAMP production, LANCE cAMP 384 Kit); type: cell-based; details: HEK293 cells expressing human recombinant 5-HT1A receptor; test concentration 0.1 nM-10000 nM; read-out: 5-HT1A receptor agonism (EC50, mol/L)
From the text: Pharmacological Test 1) 5-HT1A Receptor Agonism Activity Test

[4] = target: human recombinant 5-HT2A receptor (Homo sapiens (Human), UniProt P28223); experiment: 5-HT2A receptor antagonism activity test (FLIPR Calcium 5 Assay Kit); details: read-out: 5-HT2A receptor antagonism (IC50, mol/L)
[5] = CHO-K1 cells expressing human recombinant 5-HT2A receptor, α-methyl-5-hydroxytryptamine 300 nM, 0.1 nM-10000 nM

Chain of human recombinant 5-HT1A receptor (P08908 whole entry): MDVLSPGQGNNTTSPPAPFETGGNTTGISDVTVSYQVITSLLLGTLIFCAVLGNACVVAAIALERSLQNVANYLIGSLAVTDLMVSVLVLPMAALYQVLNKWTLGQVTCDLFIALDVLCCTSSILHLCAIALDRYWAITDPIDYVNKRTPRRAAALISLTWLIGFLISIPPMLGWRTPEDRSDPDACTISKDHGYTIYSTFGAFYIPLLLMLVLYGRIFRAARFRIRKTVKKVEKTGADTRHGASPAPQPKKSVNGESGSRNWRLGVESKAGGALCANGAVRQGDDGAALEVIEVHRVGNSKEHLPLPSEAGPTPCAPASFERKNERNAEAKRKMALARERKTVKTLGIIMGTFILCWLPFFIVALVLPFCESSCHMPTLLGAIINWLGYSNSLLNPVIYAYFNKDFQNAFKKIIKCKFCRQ
Chain of human recombinant 5-HT2A receptor (P28223 whole entry): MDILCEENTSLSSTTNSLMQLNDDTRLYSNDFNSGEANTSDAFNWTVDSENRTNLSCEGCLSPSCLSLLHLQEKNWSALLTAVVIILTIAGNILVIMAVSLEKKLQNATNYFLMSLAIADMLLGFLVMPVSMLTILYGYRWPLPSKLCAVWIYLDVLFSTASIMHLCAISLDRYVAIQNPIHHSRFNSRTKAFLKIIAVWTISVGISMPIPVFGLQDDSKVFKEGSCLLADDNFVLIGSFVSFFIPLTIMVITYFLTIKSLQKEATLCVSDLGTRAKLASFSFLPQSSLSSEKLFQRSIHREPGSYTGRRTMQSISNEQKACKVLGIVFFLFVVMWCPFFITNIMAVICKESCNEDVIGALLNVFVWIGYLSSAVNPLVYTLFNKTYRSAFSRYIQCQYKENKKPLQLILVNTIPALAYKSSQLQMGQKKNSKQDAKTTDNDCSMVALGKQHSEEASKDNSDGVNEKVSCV
Chain of human recombinant D2 receptor (P14416 whole entry): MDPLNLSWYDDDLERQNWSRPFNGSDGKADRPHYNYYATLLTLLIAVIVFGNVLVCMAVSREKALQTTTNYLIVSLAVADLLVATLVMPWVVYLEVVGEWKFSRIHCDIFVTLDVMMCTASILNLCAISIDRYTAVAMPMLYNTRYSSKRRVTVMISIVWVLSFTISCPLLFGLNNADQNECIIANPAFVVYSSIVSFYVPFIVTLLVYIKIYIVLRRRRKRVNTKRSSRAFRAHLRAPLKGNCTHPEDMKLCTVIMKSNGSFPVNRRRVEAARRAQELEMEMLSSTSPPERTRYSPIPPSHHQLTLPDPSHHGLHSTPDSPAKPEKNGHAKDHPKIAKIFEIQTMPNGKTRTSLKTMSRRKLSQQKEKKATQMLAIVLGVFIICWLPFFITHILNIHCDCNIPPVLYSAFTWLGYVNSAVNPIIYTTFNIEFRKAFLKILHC

SMILES	Effective dose [1] [mg/kg]	IC50 [2] [nM]	EC50 [3] [nM]	IC50 [4, 5] [nM]	IC50 [4] [nM]
O=C1CCc2ccc(CCN3CCN(c4cccc5sccc45)CC3)cc2N1 [Compound of example 19, 7-(2-(4-(benzo[b]thiophen-4-yl)piperazin-1-yl)ethyl)-3,4-dihydroquinolin-2(1H)-one]	0.1	8.62	0.926	169	–
O=C1CSc2ccc(CCN3CCN(c4cccc5sccc45)CC3)cc2N1 [Compound of example 31, 6-(2-(4-(benzo[b]thiophen-4-yl)piperazin-1-yl)ethyl)-2H-benzo[b][1,4]thiazin-3(4H)-one]	1	92.7	0.68	52.2	–
O=c1ccc2ccc(CCCCN3CCN(c4cccc5sccc45)CC3)cc2[nH]1 [Compound of example 33, 7-(4-(4-(benzo[b]thiophen-4-yl)piperazin-1-yl)butyl)quinolin-2(1H)-one]	1	35.6	2.24	244	–
Cl.O=C1CCc2ccc(CCN3CCN(c4cccc5sc(F)cc45)CC3)cc2N1 [Compound of example 64, 7-(2-(4-(2-fluorobenzo[b]thiophen-4-yl)piperazin-1-yl)ethyl)-3,4-dihydroquinolin-2(1H)-onehydrochloride]	1	2.94	31.6	257	–
O=C1CCc2cc(CCN3CCN(c4cccc5sc(F)cc45)CC3)ccc2N1 [Compound of example 65, 6-(2-(4-(2-fluorobenzo[b]thiophen-4-yl)piperazin-1-yl)ethyl)-3,4-dihydroquinolin-2(1H)-one]	3	7.76	1.25	40.3	–
O=C1COc2c(F)cc(CCCCN3CCN(c4cccc5sccc45)CC3)cc2N1 [Compound of example 72, 6-(4-(4-(benzo[b]thiophen-4-yl)piperazin-1-yl)butyl)-8-fluoro-2H-benzo[b][1,4]oxazin-3(4H)-one]	3	13.2	2.53	951	–
O=C1CCc2cc(CCCCN3CCN(c4cccc5sc(F)cc45)CC3)ccc2N1 [Compound of example 74, 6-(4-(4-(2-fluorobenzo[b]thiophen-4-yl)piperazin-1-yl)butyl)-3,4-dihydroquinolin-2(1H)-one]	3	1.06	20.8	874	–
O=c1[nH]c2ccc(CCN3CCN(c4cccc5sc(F)cc45)CC3)cc2[nH]1 [Compound of example 77, 5-(2-(4-(2-fluorobenzo[b]thiophen-4-yl)piperazin-1-yl)ethyl)-1H-benzo[d]imidazol-2(3H)-one]	3	6.91	4.8	157	–
O=C1COc2ccc(CCN3CCN(c4cc(F)cc5sccc45)CC3)cc2N1 [Compound of example 78, 6-(2-(4-(6-fluorobenzo[b]thiophen-4-yl)piperazin-1-yl)ethyl)-2H-benzo[b][1,4]oxazin-3(4H)-one]	3	45.6	0.599	328	–
O=C1Cc2cc(CCN3CCN(c4cccc5sc(F)cc45)CC3)ccc2N1 [Compound of example 79, 5-(2-(4-(2-fluorobenzo[b]thiophen-4-yl)piperazin-1-yl)ethyl)indolin-2-one]	1	3.87	0.77	–	16.8
Cc1nc2ccc(CCN3CCN(c4cccc5sccc45)CC3)cc2c(=O)[nH]1 [Compound of example 80, 6-(2-(4-(benzo[b]thiophen-4-yl)piperazin-1-yl)ethyl)-2-methylquinazolin-4(3H)-one]	1	25.1	1.74	11.9	–
Cl.O=S1(=O)NCCc2ccc(CCN3CCN(c4cccc5sccc45)CC3)cc21 [Compound of example 81, 7-(2-(4-(benzo[b]thiophen-4-yl)piperazin-1-yl)ethyl)-1,1-dioxide-3,4-dihydro-2H-benzo[e][1,2]thiazine hydrochloride]	1	14.3	1.05	1.67	–
O=C1Cc2cc(CCN3CCC(c4cccc5sccc45)CC3)ccc2N1 [Compound of example 82, 5-(2-(4-(benzo[b]thiophen-4-yl)piperidin-1-yl)ethyl)indolin-2-one]	1	10.9	2.8	11.5	–
O=C1CCc2ccc(CCN3CCC(c4cccc5sccc45)CC3)cc2N1 [Compound of example 83, 7-(2-(4-(benzo[b]thiophen-4-yl)piperidin-1-yl)ethyl)-3,4-dihydroquinolin-2(1H)-one]	1	10.4	4.91	–	25
O=C1CCc2ccc(CCN3CCN(c4cc(F)cc5sccc45)CC3)cc2N1 [Compound of example 85, 7-(2-(4-(6-fluorobenzo[b]thiophen-4-yl)piperazin-1-yl)ethyl)-3,4-dihydroquinolin-2(1H)-one]	1	5.32	1.38	–	77.5
Cn1c(=O)[nH]c2cc(CCN3CCN(c4cccc5sccc45)CC3)ccc21 [Compound of example 88, 5-(2-(4-(benzo[b]thiophen-4-yl)piperazin-1-yl)ethyl)-1-methyl-1H-benzo[d]imidazol-2(3H)-one]	1	215	6.31	356	–
COc1cc2c(N3CCN(CCc4ccc5c(c4)CCC(=O)N5)CC3)cccc2s1 [Compound of example 89, 6-(2-(4-(2-methoxybenzo[b]thiophen-4-yl)piperazin-1-yl)ethyl)-3,4-dihydroquinolin-2(1H)-one]	1	8.06	1.29	1050	–
O=c1ccc2ccc(CCN3CCN(c4cc(F)cc5sccc45)CC3)cc2[nH]1 [Compound of example 102, 7-(2-(4-(6-fluorobenzo[b]thiophen-4-yl)piperazin-1-yl)ethyl)quinolin-2(1H)-one]	3	106	3.29	1900	–
O=C1Cc2cc(CCCCN3CCN(c4cccc5sccc45)CC3)ccc2N1 [Compound of example 112, 5-(4-(4-(benzo[b]thiophen-4-yl)piperazin-1-yl)butyl)indolin-2-one]	1	28.1	34.6	257	–
Cc1nc2n(c(=O)c1CCN1CCN(c3cccc4sc(F)cc34)CC1)CCCC2O.Cl (centres unmarked) [Compound of example 131, 3-(2-(4-(2-fluorobenzo[b]thiophen-4-yl)piperazin-1-yl)ethyl)-9-hydroxy-2-methyl-6,7,8,9-tetrahydro-4H-pyrido[1,2-a]pyrimidin-4-one hydrochloride]	3	–	26	–	51.3
O=C1COc2ccc(CCCCN3CCN(c4cccc5sccc45)CC3)cc2N1 [Compound of example 137, 6-(4-(4-(benzo[b]thiophen-4-yl)piperazin-1-yl)butyl)-2H-benzo[b][1,4]oxazin-3(4H)-one]	3	30.2	1.81	711	–
